Read-outs that look alike come from different tables or passages of the source.
Biological target: T1, VAV1 (Homo sapiens, UniProt P15498+Q96SW2)
T1 construct: A heterozygous VAV1 C-terminal HiBiT knock-in pool was generated at Monte Rosa Therapeutics from a clonal Jurkat cell; endogenous in cells; host or cells: Jurkat clone stably expressing LgBiT, homozygous GSPT1-G575N; heterozygous VAV1-HiBiT knock-in pool
Assay: VAV1 degradation activity, VAV1-HiBiT knock-in Jurkat luminescence assay (Example A, Table 1)
Format: cell-based
Settings: VAV1-HiBiT knock-in Jurkat cells; for Dmax: Jurkat
Summary of the method: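 Jurkat cells carrying VAV1-HiBiT knock-in, plated in RPMI/10% FBS with Endurazine live-cell substrate and pre-incubated ~16 h at 37° C. Compound dosed from 10 μM stock; luminescence read 6 and 24 h later. Response normalised to plate negative/positive controls, EC50 from 3-parameter logistic fit (hillslope 1).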

[1] = luminescence read at 6 and 24 hours, read-out: VAV1 Dmax %
[2] = luminescence read at 6 and 24 hours, read-out: VAV1 Dmax %, class
[3] = luminescence read at 6 and 24 hours, read-out: VAV1 DC50
[4] = luminescence read at 6 and 24 hours, read-out: VAV1 DC50 (nM), class

Row | Compound | Dmax [1] | Dmax [2] | DC50 [3] | DC50 [4] | Dmax (luminescence read at 6 and 24 hours after compound addition, read-out: VAV1 Dmax %) | Dmax (luminescence read at 6 and 24 hours after compound addition, read-out: VAV1 Dmax %, class) | DC50 (luminescence read at 6 and 24 hours after compound addition, read-out: VAV1 DC50) | DC50 (luminescence read at 6 and 24 hours after compound addition, read-out: VAV1 DC50 (nM), class)
1 | CN(C(=O)c1ccn(C)n1)c1ccc(-c2cccc(C3CCC(=O)NC3=O)c2Cl)cc1 (stereo not drawn) [Compound 475, N-(2′-chloro-3′-(2,6-dioxopiperidin-3-yl)-[1,1′-biphenyl]-4-yl)-N, 1-dimethyl-1H-pyrazole-3-carboxamide] | 73.2% | 60 to 90% | 98.9 nM | ≤ 100 nM | – | – | – | –
2 | O=C1CCC(c2cccc(-c3ccc(Cn4ccccc4=O)cc3)c2Cl)C(=O)N1 (stereo not drawn) [Compound 156, 3-(2-chloro-4′-((2-oxopyridin-1(2H)-yl)methyl)-[1,1′-biphenyl]-3-yl)piperidine-2,6-dione] | 92% | > 90% | 26 nM | ≤ 100 nM | – | – | – | –
3 | N#Cc1ccc(-c2cccc(C3CCC(=O)NC3=O)c2Cl)cc1N (stereo not drawn) [Compound 133] | 79% | 60 to 90% | 427 nM | 100 to 1000 nM | – | – | – | –
4 | CC(Oc1ccccn1)c1ccc(-c2cccc(C3CCC(=O)NC3=O)c2Cl)cc1 (stereo not drawn) [Compound 165, 3-(2-chloro-4′-(1-(pyridin-2-yloxy)ethyl)-[1,1′-biphenyl]-3-yl)piperidine-2,6-dione] | 90.2% | > 90% | 47.7 nM | ≤ 100 nM | – | – | – | –
5 | O=C1CCC(c2cccc(-c3ccc(N4CCCCC4C(F)F)cc3)c2Cl)C(=O)N1 (stereo not drawn) [Compound 469, 3-(2-chloro-4′-(2-(difluoromethyl)piperidin-1-yl)-[1,1′-biphenyl]-3-yl)piperidine-2,6-dione] | 79.4% | 60 to 90% | 266 nM | 100 to 1000 nM | – | – | – | –
6 | O=C1CCC(c2cccc(-c3ccc4c(c3)CC(=O)N4Cc3ncccn3)c2Cl)C(=O)N1 (stereo not drawn) [Compound 393, 3-(2-chloro-3-(2-oxo-1-(pyrimidin-2-ylmethyl)indolin-5-yl)phenyl)piperidine-2,6-dione] | 86.7% | 60 to 90% | 29.3 nM | ≤ 100 nM | – | – | – | –
7 | Cn1ccc(COc2ccc(-c3cccc([C@H]4CCC(=O)NC4=O)c3Cl)cc2)n1 [Compound 213, (R)-3-(2-chloro-4′-((1-methyl-1H-pyrazol-3-yl)methoxy)-[1,1′-biphenyl]-3-yl)piperidine-2,6-dione] | 92% | > 90% | 101 nM | 100 to 1000 nM | – | – | – | –
8 | O=C1CCC(c2cccc(-c3ccc(-n4c(F)cccc4=O)cc3)c2Cl)C(=O)N1 (stereo not drawn) [Compound 242, 3-(2-chloro-4′-(6-fluoro-2-oxopyridin-1(2H)-yl)-[1,1′-biphenyl]-3-yl)piperidine-2,6-dione] | 91.5% | > 90% | 68.4 nM | ≤ 100 nM | – | – | – | –
9 | CN1CC(Cc2ccc(-c3cccc(C4CCC(=O)NC4=O)c3Cl)cc2)OC1=O (stereo not drawn) [Compound 454, 3-(2-chloro-4′-((3-methyl-2-oxooxazolidin-5-yl)methyl)-[1,1′-biphenyl]-3-yl)piperidine-2,6-dione] | 68.3% | 60 to 90% | 140 nM | 100 to 1000 nM | – | – | – | –
10 | CC1CCN(Cc2ccc(-c3cccc(C4CCC(=O)NC4=O)c3Cl)cc2)C1=O (stereo not drawn) [Compound 290] | 92.9% | > 90% | 16.9 nM | ≤ 100 nM | – | – | – | –
11 | O=C1CCC(c2cccc(-c3ccc4c(c3)CC(=O)N4CC3CC3)c2Cl)C(=O)N1 (stereo not drawn) [Compound 506, 3-(2-chloro-3-(1-(cyclopropylmethyl)-2-oxoindolin-5-yl)phenyl)piperidine-2,6-dione] | – | – | – | – | 63.7% | 60 to 90% | 1770 nM | > 1000 nM
12 | CN1CC2(CCC2)N(c2ccc(-c3cccc(C4CCC(=O)NC4=O)c3Cl)cc2)C1=O (stereo not drawn) [Compound 341, 3-(2-chloro-4′-(7-methyl-6-oxo-5,7-diazaspiro[3.4]octan-5-yl)-[1,1′-biphenyl]-3-yl)piperidine-2,6-dione] | 98.2% | > 90% | 2.46 nM | ≤ 100 nM | – | – | – | –
13 | Cn1ccc(Cc2ccc(-c3cccc(C4CCC(=O)NC4=O)c3Cl)cc2)n1 (stereo not drawn) [Compound 176, 3-(2-chloro-4′-((1-methyl-1H-pyrazol-3-yl)methyl)-[1,1′-biphenyl]-3-yl)piperidine-2,6-dione] | 98% | > 90% | 4.41 nM | ≤ 100 nM | – | – | – | –
14 | O=C1CCC(c2cccc(-c3ccc(N4CCC5(COC5)C4=O)cc3)c2Cl)C(=O)N1 (stereo not drawn) [Compound 358, 3-(2-chloro-4′-(5-oxo-2-oxa-6-azaspiro[3.4]octan-6-yl)-[1,1′-biphenyl]-3-yl)piperidine-2,6-dione] | 44.3% | < 60% | ≥ 10000 nM | > 1000 nM | – | – | – | –
15 | O=C1CCC(c2cccc(-c3ccc(N4CCOC(F)(F)C4=O)cc3)c2Cl)C(=O)N1 (stereo not drawn) [Compound 320] | 84.9% | 60 to 90% | 102 nM | 100 to 1000 nM | – | – | – | –
16 | O=C1CCC(c2cccc(-c3ccc(N4C(=O)CC45CCOCC5)cc3)c2Cl)C(=O)N1 (stereo not drawn) [Compound 418, 3-(2-chloro-4′-(2-oxo-7-oxa-1-azaspiro-[3.5]nonan-1-yl)-[1,1′-biphenyl]-3-yl)piperidine-2,6-dione] | 45.2% | < 60% | ≥ 10000 nM | > 1000 nM | – | – | – | –
17 | CC1(Cc2ccc(-c3cccc(C4CCC(=O)NC4=O)c3Cl)cc2)COC1 (stereo not drawn) [Compound 440, 3-(2-chloro-4′-((3-methyloxetan-3-yl)methyl)-[1,1′-biphenyl]-3-yl)piperidine-2,6-dione] | 94.3% | > 90% | 21.7 nM | ≤ 100 nM | – | – | – | –
18 | Cc1c(-c2ccc(-n3ccccc3=O)cc2)cccc1C1CCC(=O)NC1=O (stereo not drawn) [Compound 240, 3-[2-methyl-3-[4-(2-oxo-1-pyridyl)phenyl]phenyl]piperidine-2,6-dione] | 94.4% | > 90% | 77.1 nM | ≤ 100 nM | – | – | – | –
19 | O=C1CCC(c2cccc(-c3ccc(-n4c(F)cccc4=O)nc3)c2Cl)C(=O)N1 (stereo not drawn) [Compound 343, 3-(2-chloro-3-(6-fluoro-2-oxo-2H-[1,2′-bipyridin]-5′-yl)phenyl)piperidine-2,6-dione] | 86.3% | 60 to 90% | 161 nM | 100 to 1000 nM | – | – | – | –
20 | Cn1cncc1COc1ccc(-c2cccc(C3CCC(=O)NC3=O)c2Cl)cc1 (stereo not drawn) [Compound 186, 3-(2-chloro-4′-((1-methyl-1H-imidazol-5-yl)methoxy)-[1,1′-biphenyl]-3-yl)piperidine-2,6-dione] | 95.3% | > 90% | 13.6 nM | ≤ 100 nM | – | – | – | –
21 | O=C1CCC(c2cccc(-c3ccc(N4CCC(F)(F)CC4=O)cc3)c2Cl)C(=O)N1 (stereo not drawn) [Compound 464, 3-(2-chloro-4′-(4,4-difluoro-2-oxopiperidin-1-yl)-[1,1′-biphenyl]-3-yl)piperidine-2,6-dione] | 94.8% | > 90% | 9.46 nM | ≤ 100 nM | – | – | – | –
22 | O=C1CCC(c2cccc(-c3ccc(N4C(=O)OCCC4C(F)(F)F)cc3)c2Cl)C(=O)N1 (stereo not drawn) [Compound 305] | 93% | > 90% | 19.6 nM | ≤ 100 nM | – | – | – | –
23 | Nc1nccn1Cc1ccc(-c2cccc(C3CCC(=O)NC3=O)c2Cl)cc1 (stereo not drawn) [Compound 102] | 84.1% | 60 to 90% | 240 nM | 100 to 1000 nM | – | – | – | –
24 | O=C1CCC(c2cccc(-c3ccc(CN4CCn5nccc5C4=O)cc3)c2Cl)C(=O)N1 (stereo not drawn) [Compound 275] | 87.6% | 60 to 90% | 37.2 nM | ≤ 100 nM | – | – | – | –
